# Assay results from patent US5623080A, “Fluorone and pyronin Y derivatives” (Spectra Group Limited, Inc., priority 1995, dated 1997).
# Key:
# [1] = absorption wavelength (λmax) and extinction (ε); type: physicochemical; details: EtOH, Table 1
# [2] = pencil hardness
# Experimental: (§1) To a resin formulation consisting of 15 parts urethane diacrylate, 15 parts DPHPA, 20 parts TPGDA and 40 parts TMPTA was added DIDMA, initiator and (4-octyloxyphenyl)phenyliodonium hexafluoroantimonate (OPPI). The samples were coated to a thickness of 15 microns and exposed to a 75 W tungsten halogen dental lamp (focused through an optical fiber) at a distance of 0.75 inch at which the Light intensity was about 0.40 W/cm^2. The molar ratios are indicative of the amounts of fluorone to onium salt to amine coinitiator. The double bond conversion was determined by FTIR spectroscopy. The pencil hardness of a given test sample is measured by holding a pencil at a 45° angle to the sample and drawing across it towards the person testing it. Using the pencils in an order from softest to hardest, the first pencil that scratches the surface is assigned as the pencil hardness of the sample. The pencil hardness scale is as follows from softest to hardest: 4B, 3B, 2B, B, HB, H, 2H, 3H, 4H, 6H. For instance, if a 2H pencil is the first pencil to scratch the surface then the pencil hardness is 2H.
# At the extreme ends of the scale, it is impossible to determine the actual pencil hardness. […] Likewise, if the 4B pencil scratches the sample, the only assignment that can be made is <4B, unless it is a lot softer than 4B in which case a <<4B can be assigned. A pencil hardness of 4H is generally considered satisfactory. Pencil hardness data was greater than 6H after 30 seocnd exposure for all samples except for the control samples without amine (1:2:0). The controls were all less than 4B an 0.05 wt %, 0.10 wt %, and 0.15 wt %.
# Photosensitive compositions were prepared from the resin formulation of Example 35 containing 1% NPG and 0.05% DIBF or 0.05% DIEF. The samples were exposed under the conditions shown in the following table and pencil hardness was measured.
# Diphenyliodonium hexafluoroantimonate was added to DIBF samples.
# Samples were also prepared using 1% DIDMA in addition to the fluorone for a 20:1 weight ratio.
# Samples were also prepared from the same resin formulation containing 0.1% DIBF in addition to the coinitiator listed in the following Table 9 with the exposure condition and pencil hardness results shown.
# Using the resin formulation of Example 36, photosensitive compositions were prepared using TIHF, DIDMA and OPPI at a concentration of 0.21% and in the molar ratios shown in Table 10 which follows. Exposure was conducted with the dental lamp at a distance of 1 inch from the sample to provide an intensity of about 0.26 W/cm^2. Molar ratios are fluorone:onium salt:amine.
# [3] = double bond conversion (C=C% Conversion) by FTIR
# Experimental: as §1
# [4] = depth of cure
# From the text: One of the advantages of the fluorone dye photoinitiators in this invention is the depth of the cure that is obtainable. This is in contrast to UV photoinitators that causes a "screening" effect which prevents the UV light from penetrating beyond a certain […] depth, usually several millimeters. By contrast, the fluorone dye bleaches as it photoinitiates and is concommitantly converted into a non-visible absorbing species thus allowing more visible light to penetrate which continues the cure. This cascading bleaching effect permits substantial depth of cure which can easily reach several inches.
# An acrylate monomer mixture was composed of 15 parts urethane diacrylate, 20 parts TPGPA, 40 parts TMPTA and 15 parts DPHPA, and a 20 to 1 weight ratio of NPG coinitiator to DIEF or DIBF fluorone dye. For dye concentrations of 0.01, 0.05 and 0.1 weight, all the formulations cured to a depth of 3 cm in 30 seconds when exposed to a 350 watt tungsten halogen light which provides about 500 mw/cm^2 irradiance. When the irradiance was increased to about 2 watts/cm^2 cure speed was shortened to 5 seconds for the same depth.
# An acrylate mixture was composed of 60% urethane diacrylate, 30% DPHPA, 10% BDDA, and 0.05 weight % of DIEF or DIBF fluorone dye with 2 weight % of DIDMA. The formulation cure to a depth greater than 1 cm in 10 seconds when exposed to a 75 watt tungsten halogen lamp which provided an irradiance of about 260 mw/cm^2.
# An acrylate mixture was composed of 33% TMPTA, 33% DPHPA, 33% Epoxy acrylate, and 2% of DIDMA with either 0.01, 0.05 or 0.1 weight % of DIEF. All samples cured to a depth greater than 1 cm in 10 seconds when exposed to a 75 watt tungsten halogen.
# An acrylate mixture was composed of 70% urethane diacrylate, 5% DPHPA, 25% BDDA, and 2% DIDMA with either 0.01, 0.03 or 0.1 weight % DIEF. The 0.01 and 0.03 samples cured after 2 passes through a 300 watt per inch medium pressure mercury arc lamp at a speed of 50 feet/minute to a depth greater than 3 mm. The 0.1 sample cured to a depth of greater than 1.5 mm.
structure (smiles),measurement,setting,value
"CCCCOc1ccc2cc3cc(I)c(=O)c(I)c-3oc2c1 [DIBF, 5,7-diiodo-3-butoxy-6-fluorone]",λmax in EtOH (first value),[1],470
same,ε (first value),"[1]; at first λmax, in M-1cm-1 (unit assumed)","30,200"
same,Pencil hardness,"[2]; 0.05 wt. % w/ 0.05 wt. % DPISbF6, Dental Lamp, Air, 60 sec",2H
same,Pencil hardness,"[2]; 0.05 wt. % w/ 0.05 wt. % DPISbF6, Dental Lamp, No Air, 10 sec",> 6H
same,Pencil hardness,"[2]; 0.05 wt. % w/ 0.05 wt. % DPISbF6, Fusion (Q bulb), Air, 10 ft/min",> 6H
same,Pencil hardness,"[2]; 0.05 wt. % w/ 0.05 wt. % DPISbF6, Fusion (Q bulb), Air, 20 ft/min",> 6H
same,Pencil hardness,"[2]; 0.05 wt. %, 1% DIDMA, Dental Lamp, No Air, 10 sec",5-6H
same,Pencil hardness,"[2]; 0.05 wt. %, 1% DIDMA, Dental Lamp, No Air, 30 sec",> 6H
same,Pencil hardness,"[2]; 0.05 wt. %, 1% DIDMA, Dental Lamp, No Air, 60 sec",> 6H
same,Pencil hardness,"[2]; 0.05 wt. %, 1% DIDMA, Fusion (Q bulb), Air, 10 ft/min",> 6H
same,Pencil hardness,"[2]; 0.05 wt. %, 1% DIDMA, Fusion (Q bulb), Air, 20 ft/min",3H
same,Pencil hardness,"[2]; 0.05 wt. %, 1% NPG, Dental Lamp, No Air, 10 sec",4H
same,Pencil hardness,"[2]; 0.05 wt. %, 1% NPG, Dental Lamp, No Air, 30 sec",> 6H
same,Pencil hardness,"[2]; 0.05 wt. %, 1% NPG, Dental Lamp, No Air, 60 sec",> 6H
same,Pencil hardness,"[2]; 0.05 wt. %, 1% NPG, Fusion (Q bulb), Air, 10 ft/min",> 6H
same,Pencil hardness,"[2]; 0.05 wt. %, 1% NPG, Fusion (Q bulb), Air, 20 ft/min",4H
same,Pencil hardness,"[2]; 0.05 wt. %, 1% NPG, Overhead Proj., No Air, 60 sec",5-6H
same,Pencil hardness,"[2]; 0.1% DIBF, 1.5% DIDMA, Dental Lamp, No Air, 10 sec",> 6H
same,Pencil hardness,"[2]; 0.1% DIBF, 1.5% DIDMA, Dental Lamp, No Air, 30 sec",> 6H
same,Pencil hardness,"[2]; 0.1% DIBF, 1.5% DIDMA, Dental Lamp, No Air, 60 sec",> 6 h
same,Pencil hardness,"[2]; 0.1% DIBF, 1.5% DIDMA, Fusion (Q bulb), Air, 10 ft/min",> 6H
same,Pencil hardness,"[2]; 0.1% DIBF, 1.5% DIDMA, Fusion (Q bulb), Air, 20 ft/min",5-6H
same,Pencil hardness,"[2]; 0.1% DIBF, 1.5% NPG, Dental Lamp, No Air, 10 sec",5-6H
same,Pencil hardness,"[2]; 0.1% DIBF, 1.5% NPG, Dental Lamp, No Air, 30 sec",> 6H
same,Pencil hardness,"[2]; 0.1% DIBF, 1.5% NPG, Dental Lamp, No Air, 60 sec",> 6 h
same,Pencil hardness,"[2]; 0.1% DIBF, 1.5% NPG, Fusion (Q bulb), Air, 10 ft/min",> 6H
same,Pencil hardness,"[2]; 0.1% DIBF, 1.5% NPG, Fusion (Q bulb), Air, 20 ft/min",5-6H
same,Pencil hardness,"[2]; 0.1% DIBF, 2% NPG, Dental Lamp, No Air, 10 sec",5-6H
same,Pencil hardness,"[2]; 0.1% DIBF, 2% NPG, Dental Lamp, No Air, 30 sec",> 6H
same,Pencil hardness,"[2]; 0.1% DIBF, 2% NPG, Dental Lamp, No Air, 60 sec",> 6H
same,Pencil hardness,"[2]; 0.1% DIBF, 2% NPG, Fusion (Q bulb), Air, 10 ft/min",> 6H
same,Pencil hardness,"[2]; 0.1% DIBF, 2% NPG, Fusion (Q bulb), Air, 20 ft/min",5-6H
same,Pencil hardness,"[2]; Table 11, 0.05%, (1:0:60), DIDMA, 10 sec.",4H
same,Pencil hardness,"[2]; Table 11, 0.05%, (1:0:60), DIDMA, 60 sec.",> 6H
same,Pencil hardness,"[2]; Table 11, 0.05%, (1:1:60), DIDMA, 10 sec.",> 6H
same,Pencil hardness,"[2]; Table 11, 0.05%, (1:2:3), DIDMA, 60 sec.",> 6H
same,Pencil hardness,"[2]; Table 11, 0.05%, (1:2:3), NPG, 60 sec.",> 6H
same,Pencil hardness,"[2]; Table 11, 0.10%, (1:2:3), DIDMA, 60 sec.",> 6H
same,Pencil hardness,"[2]; Table 11, 0.15%, (1:2:3), DIDMA, 60 sec.",> 6H
same,C=C% Conversion,"[3]; 0.05 wt %, (1:0:60), DIDMA, 30 sec",37%
same,C=C% Conversion,"[3]; 0.05 wt %, (1:1:60), DIDMA, 30 sec",37%
same,C=C% Conversion,"[3]; 0.05 wt %, (1:2:0), DIDMA, 30 sec",5%
same,C=C% Conversion,"[3]; 0.05 wt %, (1:2:3), DIDMA, 30 sec",40%
same,C=C% Conversion,"[3]; 0.05 wt %, (1:2:3), DIDMA, 60 sec",43%
same,C=C% Conversion,"[3]; 0.05 wt %, (1:2:3), NPG, 30 sec",40%
same,C=C% Conversion,"[3]; 0.05 wt %, (1:2:5), DIDMA, 30 sec",40%
same,C=C% Conversion,"[3]; 0.05 wt %, (1:2:60), DIDMA, 30 sec",43%
same,C=C% Conversion,"[3]; 0.10 wt %, (1:2:0), DIDMA, 30 sec",18%
same,C=C% Conversion,"[3]; 0.10 wt %, (1:2:3), DIDMA, 30 sec",45%
same,C=C% Conversion,"[3]; 0.10 wt %, (1:2:3), DIDMA, 60 sec",47%
same,C=C% Conversion,"[3]; 0.15 wt %, (1:2:0), DIDMA, 30 sec",19%
same,C=C% Conversion,"[3]; 0.15 wt %, (1:2:3), DIDMA, 30 sec",50%
same,C=C% Conversion,"[3]; 0.15 wt %, (1:2:3), DIDMA, 60 sec",54%
same,C=C% Conversion,"[3]; 0.20 wt %, (1:2:3), DIDMA, 30 sec",51%
same,C=C% Conversion,"[3]; 0.25 wt %, (1:2:3), DIDMA, 30 sec",50%
same,depth of cure,"[4]; 10 seconds, 75 watt tungsten halogen, about 260 mw/cm^2, 0.05 weight % dye, 2 weight % DIDMA, 60% urethane diacrylate, 30% DPHPA, 10% BDDA",greater than 1 cm
same,depth of cure,"[4]; 30 seconds, 350 watt tungsten halogen, about 500 mw/cm^2, dye 0.01, 0.05 and 0.1 weight, NPG 20 to 1",3 cm
same,cure time for the same depth (3 cm),"[4]; about 2 watts/cm^2, NPG 20 to 1",5 s
